Assay results from patent publication US20070082880A1 (priority 2005, published 2007).

The compounds below were run against T1, human PKCθ full length enzyme (Homo sapiens, UniProt Q04759) (assay: PKCθ IMAP Assay). Conditions: average value when one or more samples were tested; ATP 6 uM, PKCθ 1 nM.
T1 construct: human PKCθ full length enzyme (Panvera Catalog No. P2996); purchased Panvera P2996
Assay type: biochemical
In short: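 Full-length human PKCθ (1 nM final) with 6 uM ATP and 100 nM 5FAM-labelled peptide, 5% DMSO, 3.0 mM DTT in reaction buffer. 25 min at room temperature; IMAP bead binding 20 min, fluorescence polarization read. Compounds 2:1 serially diluted; no-ATP and no-enzyme wells as controls.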

T1 sequence (Q04759 whole entry): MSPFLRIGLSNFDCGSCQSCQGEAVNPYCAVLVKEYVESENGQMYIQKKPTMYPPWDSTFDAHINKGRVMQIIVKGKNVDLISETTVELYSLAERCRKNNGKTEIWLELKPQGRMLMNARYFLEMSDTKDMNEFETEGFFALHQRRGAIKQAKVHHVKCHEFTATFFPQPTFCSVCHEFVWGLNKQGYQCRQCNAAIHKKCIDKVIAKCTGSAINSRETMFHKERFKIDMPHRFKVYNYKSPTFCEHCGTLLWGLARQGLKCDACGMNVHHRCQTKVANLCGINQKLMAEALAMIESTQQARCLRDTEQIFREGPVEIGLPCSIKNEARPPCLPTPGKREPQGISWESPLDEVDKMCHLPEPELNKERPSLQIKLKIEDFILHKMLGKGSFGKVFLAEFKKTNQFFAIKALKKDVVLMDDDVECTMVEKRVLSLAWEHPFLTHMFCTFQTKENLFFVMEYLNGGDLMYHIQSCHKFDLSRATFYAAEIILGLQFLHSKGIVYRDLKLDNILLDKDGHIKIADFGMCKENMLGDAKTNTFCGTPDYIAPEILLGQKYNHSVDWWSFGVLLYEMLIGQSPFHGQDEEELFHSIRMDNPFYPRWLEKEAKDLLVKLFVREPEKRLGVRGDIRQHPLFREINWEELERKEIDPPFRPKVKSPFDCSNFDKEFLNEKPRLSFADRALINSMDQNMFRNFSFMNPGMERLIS

Row | IC50 [nM] | Compound
1 | 642 | CNS(=O)(=O)c1ccc(-c2sc3ncc(C#N)c(Nc4ccc5[nH]ccc5c4)c3c2C)cc1 [Compound 415, 4-[5-cyano-4-(1H-indol-5-ylamino)-3-methylthieno[2,3-b]pyridin-2-yl]-N-methylbenzenesulfonamide]
2 | 116 | Cc1c(Nc2c(C#N)cnc3sc(-c4ccc(C(=O)NCCN(C)C)cc4)c(C)c23)ccc2[nH]ccc12 [Compound 430, 4-{5-cyano-3-methyl-4-[(4-methyl-1H-indol-5-yl)amino]thieno[2,3-b]pyridin-2-yl}-N-[2-(dimethylamino)ethyl]benzamide]
3 | 57 | Cc1c(Nc2c(C#N)cnc3sc(-c4ccccc4CNCCO)cc23)ccc2[nH]ccc12 [Compound 470, 2-(2-{[(2-hydroxyethyl)amino]methyl}phenyl)-4-[(4-methyl-1H-indol-5-yl)amino]thieno[2,3-b]pyridine-5-carbonitrile]
4 | 324 | Cc1c(Nc2c(C#N)cnc3sc(C4=CCCCC4)cc23)ccc2[nH]ccc12 [Compound 421, 2-cyclohex-1-en-1-yl-4-[(4-methyl-1H-indol-5-yl)amino]thieno[2,3-b]pyridine-5-carbonitrile]
5 | 12 | COc1c(CN(C)C)cccc1-c1cc2c(Nc3ccc4[nH]ccc4c3C)c(C#N)cnc2s1 [Compound 526, 2-{3-[(dimethylamino)methyl]-2-methoxyphenyl}-4-[(4-methyl-1H-indol-5-yl)amino]thieno[2,3-b]pyridine-5-carbonitrile]
6 | 16 | Cc1c(Nc2c(C#N)cnc3sc(-c4ccccn4)cc23)ccc2[nH]ccc12 [Compound 440, 4-[(4-methyl-1H-indol-5-yl)amino]-2-pyridin-2-ylthieno[2,3-b]pyridine-5-carbonitrile]
7 | 7 | Cc1c(Nc2c(C#N)cnc3sc(-c4ccc(S(N)(=O)=O)cc4)c(C)c23)ccc2[nH]ccc12 [Compound 413, 4-{5-cyano-3-methyl-4-[(4-methyl-1H-indol-5-yl)amino]thieno[2,3-b]pyridin-2-yl}benzenesulfonamide]
8 | 16 | COc1ccc(CN(C)C)c(-c2cc3c(Nc4ccc5[nH]ccc5c4C)c(C#N)cnc3s2)c1 [Compound 515, 2-{2-[(dimethylamino)methyl]-5-methoxyphenyl}-4-[(4-methyl-1H-indol-5-yl)amino]thieno[2,3-b]pyridine-5-carbonitrile]
9 | 200 | Cc1c(Nc2c(C#N)cnc3sc(-c4ccc(OC[C@H](C)O)cc4)cc23)ccc2[nH]ccc12 [Compound 488, 2-(4-{[(2S)-2-hydroxypropyl]-oxy}phenyl)-4-[(4-methyl-1H-indol-5-yl)amino]thieno[2,3-b]pyridine-5-carbonitrile]
10 | 41 | Cc1c(Nc2c(C#N)cnc3sc(-c4ccc(OC[C@@H](O)CO)cc4)cc23)ccc2[nH]ccc12 [Compound 487, 2-(4-{[(2S)-2,3-dihydroxypropyl]-oxy}phenyl)-4-[(4-methyl-1H-indol-5-yl)amino]thieno[2,3-b]pyridine-5-carbonitrile]
11 | 105 | Cc1c(Nc2c(C#N)cnc3sc(-c4ccccc4OC[C@@H](C)O)cc23)ccc2[nH]ccc12 [Compound 490, 2-(2-{[(2R)-2-hydroxypropyl]-oxy}phenyl)-4-[(4-methyl-1H-indol-5-yl)amino]thieno[2,3-b]pyridine-5-carbonitrile]
12 | 11 | Cc1c(Nc2c(C#N)cnc3scc(-c4cccc(CN(C)C)c4)c23)ccc2[nH]ccc12 [Compound 508, 3-{3-[(dimethylamino)methyl]phenyl}-4-[(4-methyl-1H-indol-5-yl)amino]thieno[2,3-b]pyridine-5-carbonitrile]
13 | 59 | Cc1c(Nc2c(C#N)cnc3sc(-c4cccc(OC[C@H](C)O)c4)cc23)ccc2[nH]ccc12 [Compound 483, 2-(3-{[(2S)-2-hydroxypropyl]-oxy}phenyl)-4-[(4-methyl-1H-indol-5-yl)amino]thieno[2,3-b]pyridine-5-carbonitrile]

More lines, now with the values behind:

Row | Compound | IC50 [nM]
14 | 2-{3-[2-(dimethylamino)ethyl]phenyl}-4-(1H-indol-5-ylamino)thieno[2,3-b]pyridine-5-carbonitrile [Compound 112] | 69
15 | Cc1c(Nc2c(C#N)cnc3sc(-c4cccc(C(=O)N(C)C)c4)cc23)ccc2[nH]ccc12 [Compound 353, 3-{5-cyano-4-[(4-methyl-1H-indol-5-yl)amino]thieno[2,3-b]pyridin-2-yl}-N,N-dimethylbenzamide] | 36
16 | CCCC/C=C/c1cc2c(Nc3ccc4[nH]ccc4c3)c(C#N)cnc2s1 [Compound 411, 2-[(1E)-hex-1-en-1-yl]-4-(1H-indol-5-ylamino)thieno[2,3-b]pyridine-5-carbonitrile] | 2550
17 | Cc1c(Nc2c(C#N)cnc3sc(-c4cnc(N5CCCCC5)nc4)cc23)ccc2[nH]ccc12 [Compound 395, 4-[(4-methyl-1H-indol-5-yl)amino]-2-(2-piperidin-1-ylpyrimidin-5-yl)thieno[2,3-b]pyridine-5-carbonitrile] | 281
18 | Cc1c(Nc2c(C#N)cnc3sc(I)c(C(C)C)c23)ccc2[nH]ccc12 [Compound 324, 2-iodo-3-isopropyl-4-[(4-methyl-1H-indol-5-yl)amino]thieno[2,3-b]pyridine-5-carbonitrile] | 65
19 | Cc1c(Nc2c(C#N)cnc3sc(/C=C/C(=O)N4CCNCC4)cc23)ccc2[nH]ccc12 [Compound 311, 4-[(4-methyl-1H-indol-5-yl)amino]-2-[(1E)-3-oxo-3-piperazin-1-ylprop-1-en-1-yl]thieno[2,3-b]pyridine-5-carbonitrile] | 88
20 | CC1CCCN1C(=O)/C=C/c1cc2c(Nc3ccc4[nH]ccc4c3)c(C#N)cnc2s1 (centres unmarked) [Compound 291, 4-(1H-indol-5-ylamino)-2-[(1E)-3-(2-methylpyrrolidin-1-yl)-3-oxoprop-1-en-1-yl]thieno[2,3-b]pyridine-5-carbonitrile] | 105
21 | N#Cc1cnc2sc(-c3ccc4ccccc4c3)cc2c1Nc1ccc2[nH]ccc2c1 [Compound 328, 4-(1H-indol-5-ylamino)-2-(2-naphthyl)thieno[2,3-b]pyridine-5-carbonitrile] | 1380
22 | Cc1c(Nc2c(C#N)cnc3sc(-c4ccc(C(=O)NCCN(C)C)cc4)cc23)ccc2[nH]ccc12 [Compound 349, 4-{5-cyano-4-[(4-methyl-1H-indol-5-yl)amino]thieno[2,3-b]pyridin-2-yl}-N-[2-(dimethylamino)ethyl]benzamide] | 16
23 | Cc1c(Nc2c(C#N)cnc3sc(-c4cnc(N5CCOCC5)nc4)cc23)ccc2[nH]ccc12 [Compound 330, 4-[(4-methyl-1H-indol-5-yl)amino]-2-(2-morpholin-4-ylpyrimidin-5-yl)thieno[2,3-b]pyridine-5-carbonitrile] | 69
24 | Cc1ccc(CN(C)C)cc1-c1cc2c(Nc3ccc4[nH]ccc4c3C)c(C#N)cnc2s1 [Compound 368, 2-{5-[(dimethylamino)methyl]-2-methylphenyl}-4-[(4-methyl-1H-indol-5-yl)amino]thieno[2,3-b]pyridine-5-carbonitrile] | 100
25 | Cc1c(Nc2c(C#N)cnc3sc(-c4ccc(S(=O)(=O)N(C)CCN(C)C)cc4)cc23)ccc2[nH]ccc12 [Compound 346, 4-{5-cyano-4-[(4-methyl-1H-indol-5-yl)amino]thieno[2,3-b]pyridin-2-yl}-N-[2-(dimethylamino)ethyl]-N-methylbenzenesulfonamide] | 48
26 | Cc1c(Nc2c(C#N)cnc3sc(-c4ccccc4OCCCN(C)C)cc23)ccc2[nH]ccc12 [Compound 383, 2-{2-[3-(dimethylamino)propoxy]phenyl}-4-[(4-methyl-1H-indol-5-yl)amino]thieno[2,3-b]pyridine-5-carbonitrile] | 64
27 | Cc1c(Nc2c(C#N)cnc3sc(-c4ccc(S(C)(=O)=O)cc4)cc23)ccc2[nH]ccc12 [Compound 376, 4-[(4-methyl-1H-indol-5-yl)amino]-2-[4-(methylsulfonyl)phenyl]thieno[2,3-b]pyridine-5-carbonitrile] | 26
28 | COCc1ccccc1-c1cc2c(Nc3ccc4[nH]ccc4c3C)c(C#N)cnc2s1 [Compound 392, 2-[2-(methoxymethyl)phenyl]-4-[(4-methyl-1H-indol-5-yl)amino]thieno[2,3-b]pyridine-5-carbonitrile] | 177
29 | Cc1c(Nc2c(C#N)cnc3sc(/C=C/C(=O)Nc4cccnc4)cc23)ccc2[nH]ccc12 [Compound 296, (2E)-3-{5-cyano-4-[(4-methyl-1H-indol-5-yl)amino]thieno[2,3-b]pyridin-2-yl}-N-pyridin-3-ylacrylamide] | 17
30 | COc1ccc(-c2cc3c(Nc4ccc5[nH]ccc5c4)c(C#N)cnc3s2)cc1C=O [Compound 337, 2-(3-formyl-4-methoxyphenyl)-4-(1H-indol-5-ylamino)thieno[2,3-b]pyridine-5-carbonitrile] | 136
31 | CC(C)c1c(I)sc2ncc(C#N)c(Nc3ccc4[nH]ccc4c3)c12 [Compound 321, 4-(1H-indol-5-ylamino)-2-iodo-3-isopropylthieno[2,3-b]pyridine-5-carbonitrile] | 345
32 | N#Cc1cnc2sc(C(=O)Nc3ccncc3)cc2c1Nc1ccc2[nH]ccc2c1 [Compound 252, 5-cyano-4-(1H-indol-5-ylamino)-N-pyridin-4-ylthieno[2,3-b]pyridine-2-carboxamide] | 959
33 | COc1ccc(C)cc1-c1cc2c(Nc3ccc4[nH]ccc4c3C)c(C#N)cnc2s1 [Compound 366, 2-(2-methoxy-5-methylphenyl)-4-[(4-methyl-1H-indol-5-yl)amino]thieno[2,3-b]pyridine-5-carbonitrile] | 106
34 | Cc1c(Nc2c(C#N)cnc3sc(/C=C/C(N)=O)cc23)ccc2[nH]ccc12 [Compound 297, (2E)-3-{5-cyano-4-[(4-methyl-1H-indol-5-yl)amino]thieno[2,3-b]pyridin-2-yl}acrylamide] | 12
35 | N#Cc1cnc2sc(/C=C/c3ccccc3)cc2c1Nc1ccc2[nH]ccc2c1 [Compound 400, 4-(1H-indol-5-ylamino)-2-[(E)-2-phenylvinyl]thieno[2,3-b]pyridine-5-carbonitrile] | 437
